Data: patent publication US10314894B2, “Treatment of cardio-renal disease using PCSK6” (THE CLEVELAND CLINIC FOUNDATION, priority 2014, dated 2019)
Peptide text beside a SMILES is read from it.

Tested on: corin activation cleavage
Assay: Protease inhibitors on corin activation cleavage in HEK293 cells expressing corin (Western blotting)
Assay type: cell-based, human
Conditions: 24 h, transfected HEK293 cells
Method: HEK293 cells were cultured in DMEM with 10% fetal bovine serum (FBS). HL-1 cardiomyocytes were cultured in Claycomb medium with 10% FBS, and 4 mM L-glutamine. All cells were cultured at 37° C. in humidified incubators with 5% CO2.
HEK293 and HL-1 cells were transfected with corin or PCSK6 expression plasmids. After 48-72 h, cells were lysed in a buffer containing 25 mM Tris-HCl, pH 7.4, 150 mM NaCl, 1 mM EDTA, 1% (v/v) NP-40, and 1% (v/v) protease inhibitor cocktail. Recombinant corin and PCSK6 proteins were immunoprecipitated with an anti-V5 or anti-flag antibody. Western blotting was carried out to analyze corin expression and activation or PCSK6 expression with or without reducing agents. Percentage of corin activation (corin-p vs. corin fragments) was quantified by densitometric analysis of Western blots.
To identify the corin activator, corin activation cleavage was examined in HEK293 and HL-1 cells expressing corin in the presence of protease inhibitors including benzamidine (5 mM), GM6001 (50 μM), dec-RVKR-cmk (20 μM), or ALLM (N-acetyl-leucyl-leucyl-methionine 50 μM). Liao et al., J Biol Chem 282, 27728-27735 (2007). The inhibitors were added to the cells in separate wells. After 24 h, cell lysates were prepared and corin protein was analyzed by Western blotting.

Compound	corin activation (~40-kDa band reduced, ~190-kDa zymogen band increased) (dec-RVKR-cmk 20 μM)	corin activation (~40-kDa band reduced, ~190-kDa zymogen band increased) (dec-RVKR-cmk 20 μM, listed as RVKR-cmk)	corin activation (~40-kDa band reduced, ~190-kDa zymogen band increased) (benzamidine 5 mM)
CCCCCCCCCC(=O)N[C@@H](CCCN=C(N)N)C(=O)N[C@H](C(=O)N[C@@H](CCCCN)C(=O)N[C@@H](CCCN=C(N)N)C(=O)CCl)C(C)C [dec-RVKR-cmk] (HELM PEPTIDE1{[CCCCCCCCCC(=O)[*:2]].R.V.K.R.[ClC[*:1]]}$$$$V2.0)	corin activation was inhibited	corin activation cleavage was inhibited	
N=C(N)c1ccccc1 [benzamidine]			corin activation cleavage was inhibited
